Legend:
ES and OS cells = assay: Alamar Blue cell viability assay, ES and OS panel; type: cell-based; settings: Homo sapiens; range over ES and OS cells
Experimental: Sarcoma cell lines were seeded in 24-well plates in 1X RPMI medium containing 10% fetal bovine serum. Cells were then incubated with DMSO (control) or concentrations of LY5 ranging from 10 nM to 10 μM for 96 hrs. At the end of the incubation period, Alamar Blue (Invitrogen, Carlsbad, CA) was added to cells at one-tenth the volume of the cell culture medium and incubated for 3 hrs at 37° C in the dark. Fluorescence was then measured at an excitation/emissions wavelength of 570/590 nm and emission wavelength of 590 nm.
Fig 2 Biologic activity of LY5 in sarcoma cell lines. Dose response curves for LY5: RMS cell lines (RH30, RD, JR-1), ES cell lines (ES-3, ES-6, ES-7, ES-8), and an OS cell line (OS-17) were treated with LY5 (concentrations ranging from 10 nM to 10 μM) for 96 hours. Cell viability was determined using Alamar Blue staining. IC50 values are indicated for each cell line. Analyses were performed in triplicate and data are plotted as means ± standard deviation.

STAT3 = STAT3 (Homo sapiens, UniProt P40763); assay: IL-6 / OSM induced STAT3 phosphorylation in SJSA cells, Western blot; type: cell-based; design: endogenous in cells; settings: LY5 two hours then 50 ng/mL cytokine 30 minutes
Chain of STAT3 (P40763 whole entry): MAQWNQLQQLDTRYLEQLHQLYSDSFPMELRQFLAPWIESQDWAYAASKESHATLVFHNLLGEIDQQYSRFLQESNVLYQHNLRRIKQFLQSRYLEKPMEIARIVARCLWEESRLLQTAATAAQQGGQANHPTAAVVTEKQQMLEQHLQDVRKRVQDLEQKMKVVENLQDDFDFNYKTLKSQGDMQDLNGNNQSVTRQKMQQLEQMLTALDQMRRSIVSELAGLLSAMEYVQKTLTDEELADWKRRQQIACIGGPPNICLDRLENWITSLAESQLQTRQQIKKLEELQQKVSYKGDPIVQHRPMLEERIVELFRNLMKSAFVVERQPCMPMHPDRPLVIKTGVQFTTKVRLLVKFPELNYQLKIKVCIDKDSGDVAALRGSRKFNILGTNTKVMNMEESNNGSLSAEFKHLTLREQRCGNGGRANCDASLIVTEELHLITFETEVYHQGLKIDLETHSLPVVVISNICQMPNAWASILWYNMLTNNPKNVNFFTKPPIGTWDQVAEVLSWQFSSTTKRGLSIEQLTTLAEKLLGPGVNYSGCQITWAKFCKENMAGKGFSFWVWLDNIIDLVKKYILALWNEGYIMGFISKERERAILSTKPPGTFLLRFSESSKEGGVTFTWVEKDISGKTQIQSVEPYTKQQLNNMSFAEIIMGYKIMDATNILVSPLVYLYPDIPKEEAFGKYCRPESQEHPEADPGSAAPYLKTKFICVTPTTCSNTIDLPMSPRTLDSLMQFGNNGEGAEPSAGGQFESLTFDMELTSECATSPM
Experimental: Cell lysis, protein isolation and immunoblotting were performed as described previously. Twenty micrograms of protein were resolved using 4–12% Bis-Tris polyacrylamide gels. Gels were transferred to PVDF membranes and subjected to blocking and incubation with primary and secondary antibodies. The primary antibodies used in this study included: phospho-STAT3 (Tyr705, Cell Signaling, Boston, MA and Abcam, Cambridge, MA), total STAT3 (Cell Signaling and Abcam), phospho-STAT1 (Cell Signaling), total STAT1 (Cell Signaling), phospho-STAT2 (Cell Signaling), phospho-STAT4 (Cell Signaling), phospho-STAT6 (Cell Signaling), and GAPDH (Cell Signaling). Protein bands were detected using Western Lightning ® Plus Enhanced Chemiluminescence substrate (Perkin Elmer, Waltham, MA) and HyBlot CL ® Autoradiography film (Denville Scientific, Holliston, MA). The cytokines used in this study included: interferon gamma (IFN-γ, Cell Signaling), interferon alpha (IFN-α, Cell Signaling), interleukin-4 (IL-4, Cell Signaling), interleukin-6 (IL-6, Cell Signaling), and oncostatin M (OSM, Cell Signaling).
Fig 1 LY5 inhibits pSTAT3 in sarcoma cell lines. (A) The tumor cell lines RH30, EW8, and RD were treated with increasing concentrations of LY5 for 30 minutes. Cell lysates were collected for Western blotting of p-STAT3, total STAT3, and GAPDH. GAPDH was used as loading control. […]

NS(=O)(=O)c1cccc2c1C(=O)C=C(Nc1cccnc1)C2=O [LY5, 5,8-dioxo-6-(pyridin-3-ylamino)-5,8-dihydronaphthalene-1-sulfonamide]
IC50 (ES and OS cells): 1.4 to 5.1 µM | IL-6 and OSM induced STAT3 phosphorylation (STAT3): effectively blocked

— paper PMC5531494, “Target specificity, in vivo pharmacokinetics, and efficacy of the putative STAT3 inhibitor LY5 in osteosarcoma, Ewing's sarcoma, and rhabdomyosarcoma” (PLoS ONE, 2017)
